According to patent US10543223B2, “Mannose derivatives useful for treating pathologies associated with adherent E. coli” (ENTEROME, priority 2015, dated 2020):
Where “and” joins values, the source holds several entries; their conditions need not be identical. Equal entries are not always repeated. Where two headings read alike, the source gives them in different places.

Columns and labels:
[1] = Plasma concentrations and pharmacokinetics after IV and PO administration to rats; format: in vivo, Sprague Dawley rats; conditions: for % AUCextra / AUC(0-inf) / AUC(0-t) / Cmax / Tmax: DMSO, based on mean data
Method: Plasma and faeces concentrations after administration of Compound 1b and for compound 13 of WO 2014/016361 at 1 mg/kg by intravenous route and 10 mg/kg by oral route to Sprague Dawley rats
At least 8 point calibration standards are run using standard conditions which consist to LC-MS/MS system with C18 column after precipitation of proteins with acetonitrile before the start of the analytical test.
For the plasma, 100 μL of blank rat plasma are directly spiked with the compounds before being precipitate with 300 μL of acetonitrile.
The concentration ranges tested are: • 0.5 ng/mL to 1000 ng/mL for plasma, • 4 to 2000 ng/g for faeces, corresponding to 1 to 500 ng/mL of faeces homogenate. 3. In-Life Part
12 male Sprague Dawley rats around 6-7 week old are used.
At prescribed times, blood is collected. Animals are briefly anaesthetised with Isoflurane® using an anaesthetic system (Équipement Vétérinaire Minerve) during blood samplings.
Blood samples are centrifuged at 2500 rpm at +4° C. (between 0 and 9° C.), the plasma is removed and placed into labelled polypropylene tubes. Individual plasma samples are stored frozen at −20° C. (target temperature) until analysis.
100 μL of the plasma sample are taken and 300 μL of acetonitrile are added. After protein precipitation, analysis is performed using LC-MS/MS determination according to previous analytical test results.
Concentrations of the samples are calculated directly from chromatograms after automatic integration by Analyst® 1.5.1 and expressed as ng/mL.
Mean plasma concentrations are calculated (when calculable, i.e. n≥2) using individual concentration and are expressed with the corresponding standard deviation value and variation coefficient (when calculable, i.e. n≥3), with
[formula] The individual plasma concentrations are tabulated for each rat and scheduled sampling time. Concentrations below the LLOQ are indicated by BLQ. All BLQ concentrations are substituted by zero for calculation of the descriptive statistics of the concentrations. 5. Results Estimation of pharmacokinetics parameters is performed using Kinetica® (Version 4.3—Thermo Electron Corporation—Philadelphia—USA). It was performed by using a one-compartment model approach, which considers the body as a single compartment in which the concentration is homogeneous. The following parameters are estimated: Cmax (ng/mL): maximal plasma concentration Tmax (h): first time to reach Cmax AUCt (ng/mL*h): area under the plasma concentration-time curve from administration up to the last quantifiable concentration at time t
[formula] “BLQ” stands for “Below the Limit of Quantification” ([…] for plasma). Compound 1b

[2] = Faeces concentrations and recovery after IV and PO administration to rats; format: in vivo, Sprague Dawley rats; conditions: 0-24 h; for dose excreted: Sprague Dawley, rat, faeces
Method: Plasma and faeces concentrations after administration of Compound 1b and for compound 13 of WO 2014/016361 at 1 mg/kg by intravenous route and 10 mg/kg by oral route to Sprague Dawley rats Blank rat faeces are homogenized with 3 volumes of UHQ water until obtention of a paste. Then 100 μL of the homogenate are spiked with the molecules and precipitated with 300 μL of acetonitrile. The concentration ranges tested are: • 0.5 ng/mL to 1000 ng/mL for plasma, • 4 to 2000 ng/g for faeces, corresponding to 1 to 500 ng/mL of faeces homogenate. 3. In-Life Part After administration, the animals are placed in individual metabolic cages in order to collect faeces samples during 24 hours. Faeces samples are collected over the 24 hours of the experiment. They are precisely weighed and 3 volumes of UHQ water are added. The mixture is homogeneized until obtention of a paste. Then 100 μL of the homogenate are taken and extracted with 300 μL of Acetonitrile. Analysis is performed using LC-MS/MS determination according to previous analytical test results.

[3] = male, Sprague Dawley, rat, plasma, IV 1 mg/kg
[4] = male, Sprague Dawley, rat, plasma, PO 10 mg/kg
[5] = IV 1 mg/kg, individual rats IV1-IV3, 1 mg/kg
[6] = PO 10 mg/kg, individual rats PO4-PO6, 10 mg/kg

Plasma concentration ([1]; IV 1 mg/kg, 0.083 h, individual rats IV1-IV3, 1 mg/kg): 1451.7 ng/mL and 1443.6 ng/mL
Plasma concentration ([1]; IV 1 mg/kg, 0.5 h, individual rats IV1-IV3, 1 mg/kg): 67.6 ng/mL and 58.5 ng/mL
Plasma concentration ([1]; IV 1 mg/kg, 2 h, individual rats IV1-IV3, 1 mg/kg): 1.6 ng/mL and 1.8 ng/mL
Plasma concentration ([1]; IV 1 mg/kg, 6 h, individual rats IV1-IV3): BLQ
Plasma concentration ([1]; IV 1 mg/kg, 24 h, individual rats IV1-IV3): BLQ
% AUCextra ([1]; IV 1 mg/kg): 0.11%
Plasma concentration ([1]; PO 10 mg/kg, 0.5 h, individual rats PO4-PO6, 10 mg/kg): 10.9 ng/mL and 7.0 ng/mL
Plasma concentration ([1]; PO 10 mg/kg, 1 h, individual rats PO4-PO6, 10 mg/kg): 4.6 ng/mL and 5.4 ng/mL
Plasma concentration ([1]; PO 10 mg/kg, 2 h, individual rats PO4-PO6, 10 mg/kg): 2.3 ng/mL and 2.0 ng/mL
Plasma concentration ([1]; PO 10 mg/kg, 6 h, individual rats PO4-PO6, 10 mg/kg): 1.9 ng/mL and 1.6 ng/mL
Plasma concentration ([1]; PO 10 mg/kg, 24 h, individual rats PO4-PO6): BLQ
% AUCextra ([1]; PO 10 mg/kg): 32.3%
concentration at 0.083 h ([1]; male, Sprague Dawley, rat, plasma, iv, 1 mg/kg, IV 1 mg/kg, 0.083 h, individual rats IV1-IV3, read-out: Plasma concentration): 1130 ng/mL
concentration at 0.083 h ([1]; male, Sprague Dawley, rat, plasma, iv, 1 mg/kg, IV 1 mg/kg, 0.083 h, mean of 3 rats (BLQ = 0), read-out: Plasma concentration, mean): 1340 ng/mL
concentration at 0.5 h ([1]; male, Sprague Dawley, rat, plasma, iv, 1 mg/kg, IV 1 mg/kg, 0.5 h, individual rats IV1-IV3, read-out: Plasma concentration): 56.1 ng/mL
concentration at 0.5 h ([1]; male, Sprague Dawley, rat, plasma, iv, 1 mg/kg, IV 1 mg/kg, 0.5 h, mean of 3 rats (BLQ = 0), read-out: Plasma concentration, mean): 60.8 ng/mL
concentration at 2 h ([1]; male, Sprague Dawley, rat, plasma, iv, 1 mg/kg, IV 1 mg/kg, 2 h, individual rats IV1-IV3, read-out: Plasma concentration): 1.6 ng/mL
concentration at 2 h ([1]; male, Sprague Dawley, rat, plasma, iv, 1 mg/kg, IV 1 mg/kg, 2 h, mean of 3 rats (BLQ = 0), read-out: Plasma concentration, mean): 1.6 ng/mL
concentration at 6 h ([1]; male, Sprague Dawley, rat, plasma, iv, 1 mg/kg, IV 1 mg/kg, 6 h, mean of 3 rats (BLQ = 0), read-out: Plasma concentration, mean): 0 ng/mL
concentration at 24 h ([1]; male, Sprague Dawley, rat, plasma, iv, 1 mg/kg, IV 1 mg/kg, 24 h, mean of 3 rats (BLQ = 0)): 0 ng/mL
concentration at 0.5 h ([1]; male, Sprague Dawley, rat, plasma, po, 10 mg/kg, PO 10 mg/kg, 0.5 h, individual rats PO4-PO6, read-out: Plasma concentration): 5.5 ng/mL
concentration at 0.5 h ([1]; male, Sprague Dawley, rat, plasma, po, 10 mg/kg, PO 10 mg/kg, 0.5 h, mean of 3 rats (BLQ = 0), read-out: Plasma concentration, mean): 7.8 ng/mL
concentration at 1 h ([1]; male, Sprague Dawley, rat, plasma, po, 10 mg/kg, PO 10 mg/kg, 1 h, individual rats PO4-PO6, read-out: Plasma concentration): 3.3 ng/mL
concentration at 1 h ([1]; male, Sprague Dawley, rat, plasma, po, 10 mg/kg, PO 10 mg/kg, 1 h, mean of 3 rats (BLQ = 0), read-out: Plasma concentration, mean): 4.4 ng/mL
concentration at 2 h ([1]; male, Sprague Dawley, rat, plasma, po, 10 mg/kg, PO 10 mg/kg, 2 h, individual rats PO4-PO6, read-out: Plasma concentration): 1.9 ng/mL
concentration at 2 h ([1]; male, Sprague Dawley, rat, plasma, po, 10 mg/kg, PO 10 mg/kg, 2 h, mean of 3 rats (BLQ = 0), read-out: Plasma concentration, mean): 2 ng/mL
concentration at 6 h ([1]; male, Sprague Dawley, rat, plasma, po, 10 mg/kg, PO 10 mg/kg, 6 h, individual rats PO4-PO6, read-out: Plasma concentration): 1.7 ng/mL
concentration at 6 h ([1]; male, Sprague Dawley, rat, plasma, po, 10 mg/kg, PO 10 mg/kg, 6 h, mean of 3 rats (BLQ = 0), read-out: Plasma concentration, mean): 1.7 ng/mL
concentration at 24 h ([1]; male, Sprague Dawley, rat, plasma, po, 10 mg/kg, PO 10 mg/kg, 24 h, mean of 3 rats (BLQ = 0)): 0 ng/mL
AUC(0-inf) [1, 3]: 452 ng·h/mL
AUC(0-t) [1, 3]: 451 ng·h/mL
Cmax [1, 3]: 1340 ng/mL
Tmax [1, 3]: 4.8 min
bioavailability ([1]; male, Sprague Dawley, rat, plasma, PO 10 mg/kg vs IV 1 mg/kg, calculated based on AUCt, read-out: F (bioavailability)): 0.3%
AUC(0-t) [1, 4]: 16 ng·h/mL
Cmax [1, 4]: 7.79 ng/mL
Tmax [1, 4]: 30 min
AUC(0-inf) ([1]; male, Sprague Dawley, rat, plasma, PO 10 mg/kg, % AUC extra >20%: value given for indication): 23.3 ng·h/mL
Faeces concentration [2, 5]: 3303 ng/g and 3130 ng/g and 3346 ng/g
Faeces concentration (homogenate) [2, 5]: 826 ng/mL and 783 ng/mL and 836 ng/mL
Recovery in faeces [2, 5]: 10.9% and 15.9%
Total amount of compound in faeces [2, 5]: 30095 ng and 28426 ng and 38053 ng
Faeces concentration (homogenate), mean ([2]; IV 1 mg/kg, mean of 3 rats): 815 ng/mL
Faeces concentration, mean ([2]; IV 1 mg/kg, mean of 3 rats): 3260 ng/g
Total amount of compound in faeces, mean ([2]; IV 1 mg/kg, mean of 3 rats): 32191 ng
Recovery in faeces [2, 6]: 57.9% and 49.3%
Total amount of compound in faeces [2, 6]: 1203583 ng and 1389086 ng and 1183679 ng
Faeces concentration (homogenate), mean ([2]; PO 10 mg/kg, mean of 3 rats): 33510 ng/mL
Faeces concentration, mean ([2]; PO 10 mg/kg, mean of 3 rats): 134039 ng/g
Total amount of compound in faeces, mean ([2]; PO 10 mg/kg, mean of 3 rats): 1258783 ng
dose excreted ([2]; iv, 1 mg/kg, IV 1 mg/kg, individual rats IV1-IV3, read-out: Recovery in faeces): 13.1%
dose excreted ([2]; iv, 1 mg/kg, IV 1 mg/kg, mean of 3 rats, read-out: Recovery in faeces, mean): 13.3%
dose excreted ([2]; po, 10 mg/kg, PO 10 mg/kg, individual rats PO4-PO6, read-out: Recovery in faeces): 50.1%
SMILES: Cc1nc(-c2cnccn2)sc1C(=O)c1cnc(N[C@H]2O[C@H](CO)[C@@H](O)[C@H](O)[C@@H]2O)s1 [13 of WO 2014/016361]
Faeces concentration [2, 6]: 103917 ng/g and 165663 ng/g and 132537 ng/g
Faeces concentration (homogenate) [2, 6]: 25979 ng/mL and 41416 ng/mL and 33134 ng/mL
